US9913843B2, “Protein kinase C inhibitors and uses thereof” (Rigel Pharmaceuticals, Inc., priority 2012, dated 2018)
Read-outs that look alike come from different tables or passages of the source.

Tested on: PKC mediated IL-2 production in human primary T cells
Experiment: IL-2 ELISA, human primary T cell, anti CD3+CD28+ (whole cell functional assay for PKC mediated IL-2 production)
Format: cell-based
Method: Human primary T cells were prepared as follows. Fresh PBMC's from All Cells (Cat # PB002) were re-suspended in RPMI (RPMI-1640 with L-Glutamine; Mediatech, Inc., Herndon Va., cat. #10-040-CM) with 10% FBS and seeded into flasks and incubated at 37° C. for 2 hours to allow the monocytes to adhere. The non-adherent cells were then centrifuged and re-suspended in RPMI medium containing 40 U/ml IL2 and seeded into a flask pre-coated with 1 μg/ml aCD3 and 5 ug/ml aCD28 (Anti-Human CD3, BD Pharmingen Catalog #555336, Anti-Human CD28, Beckman Coulter Catalog #IM1376). The cells were stimulated for 3-4 days, then transferred to a fresh flask and maintained in RPMI (RPMI-1640 with L-Glutamine; Mediatech, Inc., Herndon Va., cat. #10-040-CM) with 10% FBS and 40 U/ml IL-2.
Human primary T cells (100,000 cells per well) were pre-incubated with or without test compound in RPMI-1640 with L-Glutamine and 10% FBS for 1 hour at 37° C. Cells were then stimulated by transferring them to round-bottom 96-well plates pre-coated with 1 μg/ml aCD3 and 5 μg/ml aCD28. For counter assay, cells were instead stimulated by adding 8× stock solutions of PMA and ionomycin in RPMI-1640 with L-Glutamine and 10% FBS (for final concentrations of 0.5 ng/ml PMA and 0.1 μM ionomycin, both from Calbiochem). Cells were incubated at 37° C. for 24 hours before 100 μL supernatants were harvested for quantification of IL-2 by ELISA using Human IL-2 Duoset ELISA Kit from R and D Systems, Cat. # DY202E.
Compounds 1-156 were tested in a whole cell functional assay for PKC mediated IL-2 production as follows. Human primary T cell isolation and culture: Human primary T cells were prepared as follows. Whole blood was obtained from a healthy volunteer, mixed 1:1 with PBS, layered on to Ficoll Hypaque (Amersham Pharmacia Biotech, Piscataway, N.J., Catalog #17-1440-03) in 2:1 blood/PBS:ficoll ratio and centrifuged for 30 minutes at 4° C. at 1750 rpm. The cells at the serum: ficoll interface were recovered and washed twice with 5 volumes of PBS. These freshly isolated human peripheral blood mononuclear cells were cultured in Yssel's medium containing 40 U/ml IL2 in a flask pre-coated with 1 μg/ml aCD3 and 5 μg/ml aCD28 (Anti-Human CD3, BD Pharmingen Catalog #555336, Anti-Human CD28, Beckman Coulter Catalog #IM1376). The cells were stimulated for 3-4 days, then transferred to a fresh flask and maintained in RPMI (RPMI-1640 with L-Glutamine; Mediatech, Inc., Herndon Va., cat. #10-040-CM) with 10% FBS and 40 U/ml IL-2. The primary T-cells were then washed twice with PBS to remove the IL-2.
Primary T cell stimulation and IL2 ELISA: Human primary T cells (100,000 cells per well) were pre-incubated with or without test compound in Yssel's medium for 1 hour at 37° C. Cells were then stimulated by transferring them to round-bottom 96-well plates pre-coated with 1 μg/ml aCD3 and 5 μg/ml αCD28. For counter assay, cells were instead stimulated by adding 8× stock solutions of PMA and ionomycin in Yssels (for final concentrations of 0.5 ng/ml PMA and 0.1 uM ionomycin, both from Calbiochem). Cells were incubated at 37° C. for 24 hours before 100 μL supernatants were harvested for quantification of IL-2 by ELISA using Human IL-2 Duoset ELISA Kit from R and D Systems, Cat. # DY202E.

[1] = 24 h, human primary T cells stimulated with anti-CD3 + anti-CD28, IL-2 by ELISA, read-out: IC50 for blocking IL-2 production
[2] = human primary T cells stimulated with anti-CD3 + anti-CD28, 24 h, IL-2 by ELISA, 8 pt, read-out: IL2 ELISA, Human primary T cell, anti-CD3 + CD28, 8 pt (IC50)

SMILES | IC50 [1] [µM] | IC50 [2] [µM]
Cc1cnc(Nc2cc(-n3cnnn3)c(C3CC3)cc2F)nc1NC[C@@H]1CCCN2CCCC[C@H]12 [Compound 59, N2-(4-cyclopropyl-2-fluoro-5-(1H-tetrazol-1-yl)phenyl)-N4-(((1S,9aR)-octahydro-1H-quinolizin-1-yl)methyl)-5-methylpyrimidine-2,4-diamine] | < 30 | 0.16
Cn1nnn(-c2cc(Nc3ncc(Cl)c(NC[C@@H]4CCCN5CCCC[C@H]45)n3)c(F)cc2C2CC2)c1=O [Compound 34, 1-(5-(4-(((1S,9aR)-octahydro-1H-quinolizin-1-yl)methylamino)-5-chloropyrimidin-2-ylamino)-2-cyclopropyl-4-fluorophenyl)-4-methyl-1H-tetrazol-5(4H)-one] | < 30 | 0.67
Cn1nnnc1Oc1cc(Nc2ncc(F)c(NC[C@@H]3CCCN4CCCC[C@H]34)n2)c(F)cc1C1CC1 [Compound 28, N2-(5-(1-methyl-1H-tetrazol-5-yloxy)-4-cyclopropyl-2-fluorophenyl)-5-fluoro-N4-(((1S,9aR)-octahydro-1H-quinolizin-1-yl)methyl)pyrimidine-2,4-diamine] | < 30 | 1.81
CC1(C)Oc2cc(Nc3ncc(F)c(NC[C@@H]4CCCN5CCCC[C@H]45)n3)cnc2N(CC2CC2)C1=O [Compound 31, 7-(4-(((1S,9aR)-octahydro-1H-quinolizin-1-yl)methylamino)-5-fluoropyrimidin-2-ylamino)-4-(cyclopropylmethyl)-2,2-dimethyl-2H-pyrido[3,2-b][1,4]oxazin-3(4H)-one] | < 30 | 0.359
Cc1ccc(Nc2ncc(C(F)(F)F)c(NC[C@@H]3CCCN4CCCC[C@H]34)n2)cc1C#N [Compound 108, 5-(4-(((1S,9aR)-octahydro-1H-quinolizin-1-yl)methylamino)-5-(trifluoromethyl)pyrimidin-2-ylamino)-2-methylbenzonitrile] | < 30 | 
Fc1cnc(Nc2ccccc2)nc1NC[C@@H]1CCCN2CCCC[C@H]12 [Compound 13, 5-fluoro-N4-(((1S,9aR)-octahydro-1H-quinolizin-1-yl)methyl)-N2-phenylpyrimidine-2,4-diamine] | < 30 | 4.48
Cc1nnnn1-c1ccc(F)c(Nc2ncc(C(F)(F)F)c(NC[C@@H]3CCCN4CCCC[C@H]34)n2)c1 [Compound 104, N2-(2-fluoro-5-(5-methyl-1H-tetrazol-1-yl)phenyl)-5-(trifluoromethyl)-N4-(((1S,9aR)-octahydro-1H-quinolizin-1-yl)methyl)pyrimidine-2,4-diamine] | < 30 | 26.8
Cn1nnn(-c2cc(Nc3ncc(C#N)c(NC[C@@H]4CCCN5CCCC[C@H]45)n3)c(F)cc2C2CC2)c1=O [Compound 99, 4-(((1S,9aR)-octahydro-1H-quinolizin-1-yl)methylamino)-2-(4-cyclopropyl-2-fluoro-5-(4,5-dihydro-4-methyl-5-oxotetrazol-1-yl)phenylamino)pyrimidine-5-carbonitrile] | < 30 | 0.0509
COc1cc(Nc2ncc(N(C)C)c(NC[C@@H]3CCCN4CCCC[C@H]34)n2)cc(-n2nnnc2C)c1 [Compound 91, N4-(((1S,9aR)-octahydro-1H-quinolizin-1-yl)methyl)-N2-(3-methoxy-5-(5-methyl-1H-tetrazol-1-yl)phenyl)-N5,N5-dimethylpyrimidine-2,4,5-triamine] | < 30 | 7.94
COc1cc(Nc2ncc(OC)c(NC[C@@H]3CCCN4CCCC[C@H]34)n2)cc(OC)c1 [Compound 83, N4-(((1S,9aR)-octahydro-1H-quinolizin-1-yl)methyl)-5-methoxy-N2-(3,5-dimethoxyphenyl)pyrimidine-2,4-diamine] | < 30 | 3.87
Fc1cc(C2CC2)c(-n2cnnn2)cc1Nc1nccc(NC[C@@H]2CCCN3CCCC[C@H]23)n1 [Compound 46, N2-(4-cyclopropyl-2-fluoro-5-(1H-tetrazol-1-yl)phenyl)-N4-(((1S,9aR)-octahydro-1H-quinolizin-1-yl)methyl)pyrimidine-2,4-diamine] | < 30 | 1.12
Fc1cc(C2CC2)c(-n2cnnn2)cc1Nc1ncc(F)c(NC[C@@H]2CCCN3CCCC[C@H]23)n1 [Compound 2, N2-(4-cyclopropyl-2-fluoro-5-(1H-tetrazol-1-yl)phenyl)-5-fluoro-N4-(((1S,9aR)-octahydro-1H-quinolizin-1-yl)methyl)pyrimidine-2,4-diamine] | < 30 | 0.372

Now from value to compound:

IC50 [1] [µM] | IC50 [2] [µM] | SMILES
< 30 | 1.3 | Cn1nnn(-c2cc(Nc3ncc(C#N)c(NC[C@@H]4CCCN5CCCC[C@H]45)n3)c(F)cc2OCC2COCCO2)c1=O (stereo partly drawn) [Compound 131, 2-((4-((1,4-dioxan-2-yl)methoxy)-2-fluoro-5-(4-methyl-5-oxo-4,5-dihydro-1H-tetrazol-1-yl)phenyl)amino)-4-((((1S,9aR)-octahydro-2H-quinolizin-1-yl)methyl)amino)pyrimidine-5-carbonitrile]
< 30 | 0.0093 | N#Cc1cc(Nc2ncc(C#N)c(NC[C@@H]3CCCN4CCCC[C@H]34)n2)ccc1C1CC1 [Compound 120, 4-(((1S,9aR)-octahydro-1H-quinolizin-1-yl)methylamino)-2-(3-cyano-4-cyclopropylphenylamino)pyrimidine-5-carbonitrile]
< 30 | 5.06 | Cn1nnn(-c2cc(Nc3ncc(F)c(NC[C@@H]4CCCN5CCCC[C@H]45)n3)c(F)cc2O)c1=O [Compound 147, 1-(5-((5-fluoro-4-((((1S,9aR)-octahydro-2H-quinolizin-1-yl)methyl)amino)pyrimidin-2-yl)amino)-4-fluoro-2-hydroxyphenyl)-4-methyl-1,4-dihydro-5H-tetrazol-5-one]
< 30 |  | [2H]C([2H])(O)C([2H])([2H])Oc1cc(F)c(Nc2ncc(C#N)c(NC[C@@H]3CCCN4CCCC[C@H]34)n2)cc1-n1nnn(C)c1=O [Compound 137, 2-((2-fluoro-4-(2-hydroxyethoxy-1,1,2,2-d4)-5-(4-methyl-5-oxo-4,5-dihydro-1H-tetrazol-1-yl)phenyl)amino)-4-((((1S,9aR)-octahydro-2H-quinolizin-1-yl)methyl)amino)pyrimidine-5-carbonitrile]
< 30 | 0.176 | CC(O)COc1cc(F)c(Nc2ncc(C#N)c(NC[C@@H]3CCCN4CCCC[C@H]34)n2)cc1-n1nnn(C)c1=O (stereo partly drawn) [Compound 136, 2-((2-fluoro-4-(2-hydroxypropoxy)-5-(4-methyl-5-oxo-4,5-dihydro-1H-tetrazol-1-yl)phenyl)amino)-4-((((1S,9aR)-octahydro-2H-quinolizin-1-yl)methyl)amino)pyrimidine-5-carbonitrile]
< 30 | 0.0418 | N#Cc1cnc(Nc2cc(-n3nnnc3C3CC3)ccc2F)nc1NC[C@@H]1CCCN2CCCC[C@H]12 [Compound 123, 4-(((1S,9aR)-octahydro-1H-quinolizin-1-yl)methylamino)-2-(5-(5-cyclopropyl-1H-tetrazol-1-yl)-2-fluorophenylamino)pyrimidine-5-carbonitrile]
< 30 | 0.188 | Cn1nnn(-c2cc(Nc3ncc(F)c(NC[C@@H]4CCCN5CCCC[C@H]45)n3)c(F)cc2OCC(C)(C)O)c1=O [Compound 154, 1-(4-fluoro-5-((5-fluoro-4-((((1S,9aR)-octahydro-2H-quinolizin-1-yl)methyl)amino)pyrimidin-2-yl)amino)-2-(2-hydroxy-2-methylpropoxy)phenyl)-4-methyl-1,4-dihydro-5H-tetrazol-5-one]
